# Measured values published in patent US11771738B2 (Zoetis Services LLC, priority 2018, dated 2023).
# Like-named read-outs stand apart in the source and are kept apart here. Marks after values point to notes of the source that are not given here.
# Key:
# [1] = system: microfilariae of Dirofilaria immitis; test: Dirofilaria immitis, Microfilaria (DiMf) In Vitro Assay; assay type: cell-based; conditions: for minimal effective concentration: Dirofilaria immitis, 72 h, read-out: DiMf MED, Minimum Effective Dose, D. immitis microfilariae motility, in vitro
# D. immitis L4 larvae = test: Dirofilaria immitis, L4 Stage (DiL4) In Vitro Assay; assay type: cell-based; conditions: for minimal effective concentration: Dirofilaria immitis, 72 h, read-out: DiL4 MED, Minimum Effective Dose, D. immitis L4 larvae motility, in vitro; for DiMf/DiL4: larval stage selectivity; for DiL4 MED: Minimum Effective Dose, D. immitis L4 larvae motility, in vitro
# [2] = system: third stage larvae of Haemonchus contortus; test: Haemonchus contortus, Larvae Stage 3 (HcL3) In Vitro Assay; assay type: cell-based; conditions: for minimal effective concentration: Haemonchus contortus, 96 h; for HcL3 MED: Minimum Effective Dose, H. contortus third stage larvae, approximately 96 hours
# [3] = system: circulating microfilariae; test: Heartworm Positive Dog Studies
# [4] = system: circulating microfilariae; conditions: dog, in vivo
# [5] = read-out: HcL3 MED (symbol after Ex#), approximately 96 hours incubation, multiple-resistant field isolate
# [6] = read-out: HcL3 MED, Minimum Effective Dose, H. contortus third stage larvae, approximately 96 hours
compound,measurement,setting,value
"COc1ccc(Cc2ccc(C[C@H]3OC(=O)[C@H](CC(C)C)N(C)C(=O)[C@@H](C)OC(=O)[C@H](CC(C)C)N(C)C(=O)[C@@H](Cc4ccccc4)OC(=O)[C@H](CC(C)C)N(C)C(=O)[C@@H](C)OC(=O)[C@H](CC(C)C)N(C)C3=O)cc2)c(C)n1 [Example 4-118, (3S,6R,9S,12R,15S,18R,21S,24R)-6-benzyl-3,9,15,21-tetraisobutyl-18-(4-((6-methoxy-2-methylpyridin-3-yl)methyl)benzyl)-4,10,12,16,22,24-hexamethyl-1,7,13,19-tetraoxa-4,10,16,22-tetraazacyclotetracosan-2,5,8,11,14,17,20,23-octaone]",minimal effective concentration,[1],0.001 µM
same,minimal effective concentration,D. immitis L4 larvae,0.0001 µM
same,DiMf/DiL4,D. immitis L4 larvae; ratio of DiMf MED to DiL4 MED,10
same,minimal effective concentration,[2]; [5],< 1 µM
same,minimal effective concentration,[2]; [6],0.3 µM
same,minimal effective concentration,"[2]; read-out: HcL3 MED, approximately 96 hours incubation, multiple-resistant field isolate",≤ 1 µM
"COc1cc(C)c(Cc2ccc(C[C@H]3OC(=O)[C@H](CC(C)C)N(C)C(=O)[C@@H](C)OC(=O)[C@H](CC(C)C)N(C)C(=O)[C@@H](Cc4ccccc4)OC(=O)[C@H](CC(C)C)N(C)C(=O)[C@@H](C)OC(=O)[C@H](CC(C)C)N(C)C3=O)cc2)cn1 [Example 4-126, (3S,6R,9S,12R,15S,18R,21S,24R)-6-benzyl-3,9,15,21-tetraisobutyl-18-(4-((6-methoxy-4-methylpyridin-3-yl)methyl)benzyl)-4,10,12,16,22,24-hexamethyl-1,7,13,19-tetraoxa-4,10,16,22-tetraazacyclotetracosan-2,5,8,11,14,17,20,23-octaone]",minimal effective concentration,[1],0.003 µM
same,minimal effective concentration,D. immitis L4 larvae,0.0002 µM
same,DiMf/DiL4,D. immitis L4 larvae; ratio of DiMf MED to DiL4 MED,15
same,minimal effective concentration,[2]; [5],1 to 3.3 µM
same,minimal effective concentration,[2]; [6],1.8 µM
Cc1ncccc1Cc1ccc(C[C@H]2OC(=O)[C@H](CC(C)C)N(C)C(=O)[C@@H](C)OC(=O)[C@H](CC(C)C)N(C)C(=O)[C@@H](Cc3ccccc3)OC(=O)[C@H](CC(C)C)N(C)C(=O)[C@@H](C)OC(=O)[C@H](CC(C)C)N(C)C2=O)cc1 [Example 4-139],DiMf MED,"[1]; Minimum Effective Dose, D. immitis microfilariae motility, in vitro",1 nM
same,DiL4 MED,D. immitis L4 larvae,0.4 nM
same,DiMf/DiL4,D. immitis L4 larvae; ratio of DiMf MED to DiL4 MED,2.5
same,HcL3 MED,[2],1 µM
same,HcL3 MED (symbol after Ex#),"[2]; approximately 96 hours incubation, multiple-resistant field isolate",4-139* (Examples with an asterisk (*) have HcL3 MED values≤1 μM)
"Cc1cnsc1Cc1ccc(C[C@H]2OC(=O)[C@H](CC(C)C)N(C)C(=O)[C@@H](C)OC(=O)[C@H](CC(C)C)N(C)C(=O)[C@@H](Cc3ccc(Cc4sncc4C)cc3)OC(=O)[C@H](CC(C)C)N(C)C(=O)[C@@H](C)OC(=O)[C@H](CC(C)C)N(C)C2=O)cc1 [Example 4-141, (3S,6R,9S,12R,15S,18R,21S,24R)-3,9,15,21-tetraisobutyl-4,6,10,16,18,22-hexamethyl-12,24-bis(4-((4-methylisothiazol-5-yl)methyl)benzyl)-1,7,13,19-tetraoxa-4,10,16,22-tetraazacyclotetracosan-2,5,8,11,14,17,20,23-octaone]",minimal effective concentration,[1],0.003 µM
same,DiL4 MED,D. immitis L4 larvae; listed as (4-141),1 nM
same,DiMf/DiL4,"D. immitis L4 larvae; ratio of DiMf MED to DiL4 MED, listed as (4-141)",3
same,minimal effective concentration,[2]; [5],1 to 3.3 µM
same,HcL3 MED,[2]; listed as (4-141),1.8 µM
"CC(C)C[C@H]1C(=O)O[C@H](Cc2ccc(N3CCOCC3)cc2)C(=O)N(C)[C@@H](CC(C)C)C(=O)O[C@H](C)C(=O)N(C)[C@@H](CC(C)C)C(=O)O[C@H](Cc2ccc(N3CCOCC3)cc2)C(=O)N(C)[C@@H](CC(C)C)C(=O)O[C@H](C)C(=O)N1C [emodepside, Emodepside, reference compound]",selectivity against D. immitis L4 (DiMf/DiL4),D. immitis L4 larvae; ratio of DiMf MED to DiL4 MED,1 ×
same,adverse effects / clinical observations,"[3]; heartworm positive dogs, oral, emodepside 1 mg/kg, Example 3-9 3 mg/kg",all treated dogs exhibited adverse effects consistent with dead or dying circulating microfilariae
same,"Mean MF/mL, Day 0, Post-dose, 2 hours","[3]; heartworm positive dogs, oral, emodepside 1 mg/kg, Example 3-9 3 mg/kg, 2 hours post-dose, blood","8,300 MF/mL"
same,"Mean MF/mL, Day 0 Pre-dose","[3]; heartworm positive dogs, oral, emodepside 1 mg/kg, Example 3-9 3 mg/kg, Day 0 pre-dose, blood","61,000 MF/mL"
same,"Mean MF/mL, Day 1","[3]; heartworm positive dogs, oral, emodepside 1 mg/kg, Example 3-9 3 mg/kg, Day 1, blood","4,500 MF/mL"
same,"Mean MF/mL, Day 7","[3]; heartworm positive dogs, oral, emodepside 1 mg/kg, Example 3-9 3 mg/kg, Day 7, blood","8,800 MF/mL"
same,"% Reduction of MF, Day 0, Post-dose, 2 hours","[3]; vs pre-dose (day 0) levels, oral, emodepside 1 mg/kg, Example 3-9 3 mg/kg, 2 hours post-dose",87%
same,"% Reduction of MF, Day 0, Post-dose, 2 hours","[3]; vs pre-dose (day 0) levels, oral, emodepside 1 mg/kg, Example 3-9 3 mg/kg, 2 hours post-dose, listed as Emodepside",87%
same,"% Reduction of MF, Day 1","[3]; vs pre-dose (day 0) levels, oral, emodepside 1 mg/kg, Example 3-9 3 mg/kg, Day 1",93%
same,"% Reduction of MF, Day 7","[3]; vs pre-dose (day 0) levels, oral, emodepside 1 mg/kg, Example 3-9 3 mg/kg, Day 7",86%
"(3S,6R,9S,12R,15S,18R,21S,24R)-6-benzyl-18-(4-(hydroxy(6-methoxypyridin-3-yl)methyl)benzyl)-3,9,15,21-tetraisobutyl-4,10,12,16,22,24-hexamethyl-1,7,13,19-tetraoxa-4,10,16,22-tetraazacyclotetracosan-2,5,8,11,14,17,20,23-octaone [Example 3-9]",adverse effects / clinical observations,[4],no adverse effects observed
same,"% Reduction of MF, Day 0, Post-dose, 2 hours","[3]; dog, in vivo",−11%
same,"% Reduction of MF, Day 1","[3]; dog, in vivo",−28%
same,"% Reduction of MF, Day 7","[3]; dog, in vivo",−50%
same,"Mean MF/mL, Day 0, Post-dose, 2 hours","[3]; dog, in vivo","20,000 MF/mL"
same,"Mean MF/mL, Day 0 Pre-dose","[3]; dog, in vivo","18,000 MF/mL"
same,"Mean MF/mL, Day 1","[3]; dog, in vivo","23,000 MF/mL"
same,"Mean MF/mL, Day 7","[3]; dog, in vivo","25,000 MF/mL"
same,"% Reduction of MF, Day 14","[3]; dog, in vivo, po, 3 mg/kg",−22%
same,"% Reduction of MF, Day 21","[3]; dog, in vivo, po, 3 mg/kg",−33%
same,"Mean MF/mL, Day 14","[3]; dog, in vivo, po, 3 mg/kg","22,000 MF/mL"
same,"Mean MF/mL, Day 21","[3]; dog, in vivo, po, 3 mg/kg","24,000 MF/mL"
